Measured values published in patent US8173645B2 (Takeda San Diego, Inc., priority 2007, dated 2012).

Biological target: T1, glucokinase (GK), residues 12-465 of the human enzyme (Homo sapiens, UniProt P35557)
T1 construct: I.D. No. 1 corresponds to residues 12-465 of glucokinase; made in house; host or cells: E. coli DH10b-Tlr
T1 sequence (P35557 with tags, fused parts or gaps isoform P35557-2): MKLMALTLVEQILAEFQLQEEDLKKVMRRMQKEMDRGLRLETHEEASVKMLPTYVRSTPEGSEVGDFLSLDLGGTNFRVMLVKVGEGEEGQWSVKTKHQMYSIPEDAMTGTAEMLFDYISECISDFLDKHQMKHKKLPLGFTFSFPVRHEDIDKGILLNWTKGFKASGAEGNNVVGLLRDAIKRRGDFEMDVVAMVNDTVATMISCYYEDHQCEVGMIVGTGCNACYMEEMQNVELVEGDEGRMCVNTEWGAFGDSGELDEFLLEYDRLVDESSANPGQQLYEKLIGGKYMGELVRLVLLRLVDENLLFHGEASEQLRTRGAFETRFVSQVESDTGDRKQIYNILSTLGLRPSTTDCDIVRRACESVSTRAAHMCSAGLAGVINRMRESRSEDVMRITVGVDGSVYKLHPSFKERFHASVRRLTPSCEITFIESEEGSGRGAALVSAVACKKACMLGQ
Experiment: Enzymatic glucokinase activity assay (KinaseGlo luminescence, ATP consumption)
Format: biochemical
Conditions: 5 μM ATP, 5 mM Glucose; for EC50: GK activation, Kact = concentration giving 50% of the maximal increase in GK activity, read-out: pKact; for Emax: calculated maximal gain in GK enzyme activity at a saturating concentration of the compound, read-out: % ACTmax
How it was run: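 Activation measured as ATP consumption: residual ATP detected by KinaseGlo luminescence after 60 min at room temperature with 5 μM ATP and 5 mM glucose (Hepes pH 7.2, MgCl2, Brij35, DTT, 2% DMSO). Enzyme was recombinant FLAG-tagged protein from E. coli. Eleven-point twofold series were fitted nonlinearly for pKact and % ACTmax.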

EC50 | Emax | SMILES
≥ 3.16 µM | 74.1 to 97% | O=C(Nc1nccs1)[C@H](CC1CCCCC1)N1CCN(C(=O)NC2CCCC2)CC1=O [Example 140, (S)-4-(3-cyclohexyl-1-oxo-1-(thiazol-2-ylamino)propan-2-yl)-N-cyclopentyl-3-oxopiperazine-1-carboxamide]
0.794 to 1.26 µM | 108 to 119% | O=C(Nc1ncc(F)s1)C(CC1CCOCC1)N1CCN(S(=O)(=O)c2cccc(F)c2)CC1=O (stereo not drawn) [Example 148, 2-(4-(3-fluorophenylsulfonyl)-2-oxopiperazin-1-yl)-N-(5-fluorothiazol-2-yl)-3-(tetrahydro-2H-pyran-4-yl)propanamide]
≤ 0.631 µM | 97.1 to 107% | CN1CCOc2cc(S(=O)(=O)N3CCN([C@@H](CC4CCCCC4)C(=O)Nc4nccs4)C(=O)C3)ccc21 [Example 44, (S)-3-cyclohexyl-2-(4-(4-methyl-3,4-dihydro-2H-benzo[b][1,4]oxazin-7-ylsulfonyl)-2-oxopiperazin-1-yl)-N-(thiazol-2-yl)propanamide]
0.794 to 1.26 µM | 97.1 to 107% | O=C(Nc1nccs1)[C@H](CC1CCCCC1)N1CCN(S(=O)(=O)c2cccc3nsnc23)CC1=O [Example 171, (S)-2-(4-(benzo[c][1,2,5]thiadiazol-4-ylsulfonyl)-2-oxopiperazin-1-yl)-3-cyclohexyl-N-(thiazol-2-yl)propanamide]
0.794 to 1.26 µM | ≤ 74% | O=C(Nc1nccs1)[C@H](CC1CCCCC1)N1CCN(S(=O)(=O)c2ccc(Br)c(Br)c2)CC1=O [Example 231, (S)-3-cyclohexyl-2-(4-(3,4-dibromophenylsulfonyl)-2-oxopiperazin-1-yl)-N-(thiazol-2-yl)propanamide]
1.58 to 2.51 µM | 74.1 to 97% | N#Cc1ccc(S(=O)(=O)N2CCN([C@@H](CC3CCCCC3)C(=O)Nc3nccs3)C(=O)C2)c(Cl)c1 [Example 52, (S)-2-(4-(2-chloro-4-cyanophenylsulfonyl)-2-oxopiperazin-1-yl)-3-cyclohexyl-N-(thiazol-2-yl)propanamide]
≥ 3.16 µM | ≤ 74% | O=C(Nc1nccs1)[C@H](CC1CCCCC1)N1CCN(C(=S)Nc2ccc(C(F)(F)F)cc2)CC1=O [Example 85, (S)-3-cyclohexyl-2-(2-oxo-4-(4-(trifluoromethyl)phenylcarbamothioyl)piperazin-1-yl)-N-(thiazol-2-yl)propanamide]
≤ 0.631 µM | 108 to 119% | O=C(Nc1nccs1)[C@H](CC1CCCCC1)N1CCN(S(=O)(=O)c2cccc(Br)c2)CC1=O [Example 232, (S)-2-(4-(3-bromophenylsulfonyl)-2-oxopiperazin-1-yl)-3-cyclohexyl-N-(thiazol-2-yl)propanamide]
1.58 to 2.51 µM | 97.1 to 107% | Cc1cc(F)ccc1S(=O)(=O)N1CCN([C@@H](CC2CCCCC2)C(=O)Nc2nccs2)C(=O)C1 [Example 223, (S)-3-cyclohexyl-2-(4-(4-fluoro-2-methylphenylsulfonyl)-2-oxopiperazin-1-yl)-N-(thiazol-2-yl)propanamide]
≥ 3.16 µM | ≤ 74% | O=C(Nc1nccs1)[C@H](CC1CCCCC1)N1CCN(C(=O)Nc2ccc(Cl)cc2)CC1=O [Example 137, (S)-N-(4-chlorophenyl)-4-(3-cyclohexyl-1-oxo-1-(thiazol-2-ylamino)propan-2-yl)-3-oxopiperazine-1-carboxamide]
1.58 to 2.51 µM | 108 to 119% | O=C(Nc1nccs1)[C@H](CC1CCCCC1)N1CCN(S(=O)(=O)Cc2cccc(Cl)c2)CC1=O [Example 63, (S)-2-(4-(3-chlorobenzylsulfonyl)-2-oxopiperazin-1-yl)-3-cyclohexyl-N-(thiazol-2-yl)propanamide]
0.794 to 1.26 µM | ≥ 119% | O=C(Nc1ncc(Cl)s1)C(CC1CCOCC1)N1CCN(S(=O)(=O)c2ccc(F)cc2)CC1=O (stereo not drawn) [Example 33, N-(5-chlorothiazol-2-yl)-2-(4-(4-fluorophenylsulfonyl)-2-oxopiperazin-1-yl)-3-(tetrahydro-2H-pyran-4-yl)propanamide]
1.58 to 2.51 µM | ≤ 74% | O=C(Nc1nccs1)[C@H](CC1CCCCC1)N1CCN(S(=O)(=O)c2cccc3ccccc23)CC1=O [Example 65, (S)-3-cyclohexyl-2-(4-(naphthalen-1-ylsulfonyl)-2-oxopiperazin-1-yl)-N-(thiazol-2-yl)propanamide]
0.794 to 1.26 µM | 108 to 119% | COc1ccc(OC)c(S(=O)(=O)N2CCN([C@@H](CC3CCCCC3)C(=O)Nc3nccs3)C(=O)C2)c1 [Example 194, (S)-3-cyclohexyl-2-(4-(2,5-dimethoxyphenylsulfonyl)-2-oxopiperazin-1-yl)N-(thiazol-2-yl)propanamide]
≥ 3.16 µM | ≤ 74% | COC(=O)c1c(C)oc(C)c1S(=O)(=O)N1CCN([C@@H](CC2CCCCC2)C(=O)Nc2nccs2)C(=O)C1 [Example 162, (S)-methyl 4-(4-(3-cyclohexyl-1-oxo-1-(thiazol-2-ylamino)propan-2-yl)-3-oxopiperazin-1-ylsulfonyl)-2,5-dimethylfuran-3-carboxylate]
≤ 0.631 µM | 74.1 to 97% | O=C(Nc1ncc(Cl)s1)[C@H](CC1CCOCC1)N1CCN(S(=O)(=O)c2cccs2)CC1=O [Example 37, (S)-N-(5-chlorothiazol-2-yl)-2-(2-oxo-4-(thiophen-2-ylsulfonyl)piperazin-1-yl)-3-(tetrahydro-2H-pyran-4-yl)propanamide]
1.58 to 2.51 µM | ≥ 119% | O=C(Nc1nccs1)[C@H](CC1CCCCC1)N1CCN(S(=O)(=O)CC(F)(F)F)CC1=O [Example 93, (S)-3-cyclohexyl-2-(2-oxo-4-(2,2,2-trifluoroethylsulfonyl)piperazin-1-yl)-N-(thiazol-2-yl)propanamide]
≥ 3.16 µM | ≤ 74% | O=C(Nc1nccs1)[C@H](CC1CCCCC1)N1CCN(C(=O)Nc2ccc3sccc3c2)CC1=O [Example 144, (S)-N-(benzo[b]thiophen-5-yl)-4-(3-cyclohexyl-1-oxo-1-(thiazol-2-ylamino)propan-2-yl)-3-oxopiperazine-1-carboxamide]
0.794 to 1.26 µM | 108 to 119% | O=C(Nc1nccs1)[C@H](CC1CCCCC1)N1CCN(S(=O)(=O)c2cccc(OC(F)F)c2)CC1=O [Example 106, (S)-3-cyclohexyl-2-(4-(3-(difluoromethoxy)phenylsulfonyl)-2-oxopiperazin-1-yl)-N-(thiazol-2-yl)propanamide]
≥ 3.16 µM | 108 to 119% | O=C(Nc1nccs1)[C@H](CC1CCCCC1)N1CCN(S(=O)(=O)c2c(Cl)nc3sccn23)CC1=O [Example 164, (S)-2-(4-(6-chloroimidazo[2,1-b]thiazol-5-ylsulfonyl)-2-oxopiperazin-1-yl)-3-cyclohexyl-N-(thiazol-2-yl)propanamide]
1.58 to 2.51 µM | ≤ 74% | O=C(Nc1nccs1)[C@H](CC1CCCCC1)N1CCN(S(=O)(=O)Cc2ccc(Cl)c(Cl)c2)CC1=O [Example 211, (S)-3-cyclohexyl-2-(4-(3,4-dichlorobenzylsulfonyl)-2-oxopiperazin-1-yl)-N-(thiazol-2-yl)propanamide]
0.794 to 1.26 µM | 97.1 to 107% | CCN(CC)CCCNC(=S)N1CCN([C@@H](CC2CCCCC2)C(=O)Nc2nccs2)C(=O)C1 [Example 133, (S)-3-cyclohexyl-2-(4-(3-(diethylamino)propylcarbamothioyl)-2-oxopiperazin-1-yl)-N-(thiazol-2-yl)propanamide]
1.58 to 2.51 µM | 74.1 to 97% | O=C(Nc1nccs1)[C@H](CC1CCCCC1)N1CCN(S(=O)(=O)Cc2cccc(C(F)(F)F)c2)CC1=O [Example 213, (S)-3-cyclohexyl-2-(2-oxo-4-(3-(trifluoromethyl)benzylsulfonyl)piperazin-1-yl)-N-(thiazol-2-yl)propanamide]
0.794 to 1.26 µM | 108 to 119% | O=C(Nc1nccs1)[C@H](CC1CCCCC1)N1CCN(S(=O)(=O)c2ccc(F)cc2F)CC1=O [Example 58, (S)-3-cyclohexyl-2-(4-(2,4-difluorophenylsulfonyl)-2-oxopiperazin-1-yl)-N-(thiazol-2-yl)propanamide]
0.794 to 1.26 µM | ≤ 74% | O=C(Nc1nccs1)[C@H](CC1CCCCC1)N1CCN(S(=O)(=O)c2ccc(Cl)c(Cl)c2)CC1=O [Example 90, (S)-3-cyclohexyl-2-(4-(3,4-dichlorophenylsulfonyl)-2-oxopiperazin-1-yl)-N-(thiazol-2-yl)propanamide]
≥ 3.16 µM | ≤ 74% | N#Cc1ccc(NC(=O)N2CCN([C@@H](CC3CCCCC3)C(=O)Nc3nccs3)C(=O)C2)cc1 [Example 132, (S)-N-(4-cyanophenyl)-4-(3-cyclohexyl-1-oxo-1-(thiazol-2-ylamino)propan-2-yl)-3-oxopiperazine-1-carboxamide]
0.794 to 1.26 µM | 108 to 119% | O=C(Nc1nccs1)[C@H](CC1CCCCC1)N1CCN(S(=O)(=O)c2cccc3cccnc23)CC1=O [Example 40, (S)-3-cyclohexyl-2-(2-oxo-4-(quinolin-8-ylsulfonyl)piperazin-1-yl)-N-(thiazol-2-yl)propanamide]
